Assay results from PubChem BioAssay AID1996.
In brackets after ≈: the same amount, converted by molar mass.

Settings: buffer; pH 7.4; 200.0 µM

| Compound | solubility kinetic [µg/mL] |
| --- | --- |
| Cc1ccc(C(=O)OCC(=O)Nc2ccccc2Cl)c(O)c1 | 0.8 (≈ 2.5 µM) |
| CSc1ccccc1NC(=O)CSc1nncs1 | > 44.6 |
| CC[N+](C)(CC)CCC(c1ccccc1)C1CCCCC1 (centres undefined) | 29.5 |
| Cc1cccn2c(=O)c3cc(C(=O)NC4CCCC4)sc3nc12 | 4.9 (≈ 15 µM) |
| O=C(NC(=S)N1CCc2ccccc21)C1CCC1 | > 39.1 |
| CC1CCN(C(=O)c2ccc(N3C(=O)c4ccccc4C3=O)cc2)CC1 | 33.5 (≈ 96.2 µM) |
| COc1ccc(OC)c(NC(=O)c2csc(Cl)c2OC)c1 | < 0.7 |
| Cc1ccc(C(=O)N(CN2CCCC2=O)c2ccccc2)cc1 | > 46.3 |
| Cc1ccc(C2CC3CCC(C2)N3Cc2ccccc2F)cc1 (centres undefined) | 26.8 (≈ 86.6 µM) |
| NS(=O)(=O)c1ccc(NC(=O)Nc2ccccc2)cc1 | 42.8 (≈ 147 µM) |
| CCS(=O)(=O)N1CCC(C(=O)Nc2ccccc2OC)CC1 | 43.3 (≈ 133 µM) |
| O=C(Nc1ccc2ncccc2c1)c1cccc(Br)c1 | 2.5 (≈ 7.64 µM) |
| CNC(=S)Nc1cccc(C(=O)O)c1 | > 31.5 |
| CCOc1ccc(NC(=O)CN(C)S(=O)(=O)c2cnc[nH]2)cc1 | > 50.8 |
| NS(=O)(=O)c1ccc(CCNC(=O)CN2CCN(S(=O)(=O)c3ccccc3F)CC2)cc1 | > 72.7 |
| O=C1OC(C(=O)Nc2ccccc2)Cc2ccccc21 (centres undefined) | 10.9 (≈ 40.8 µM) |
| Cc1ccc(-c2cc(C(=O)N3CCN(c4ccc(O)cc4)CC3)c3ccccc3n2)cc1 | 6.4 (≈ 15.1 µM) |
| COC(=O)c1ccc(Nc2ncnc3sccc23)cc1 | 1.8 (≈ 6.31 µM) |
| [Br-].c1ccc(-c2c[n+]3c(n2-c2ccccc2)SCC3)cc1 | > 53.9 |
| CNC(=O)Nc1ccc(C2SCCS2)cc1 | 19.9 (≈ 78.2 µM) |

| Compound | solubility kinetic [µg/mL] |
| --- | --- |
| CCOC(=O)C1=C(c2ccc(O)cc2)NC(=O)NC1C (centres undefined) | 37 (≈ 134 µM) |
| CN(c1ccccc1)S(=O)(=O)c1ccc2[nH]c(=O)oc2c1 | > 45.6 |
| COC(=O)c1ccccc1N1CCS(=O)(=O)CC1 | > 40.4 |
| Cn1cc(C(O)CN2CCCCC2)c2ccccc21 (centres undefined) | 38.1 (≈ 147 µM) |
| Cc1cccn2c(=O)nc(SCC(=O)NC3CCCCC3)nc12 | > 49.9 |
| CN(CC(=O)Nc1cccc(F)c1)CC(=O)N(C)c1c(N)n(Cc2ccccc2)c(=O)[nH]c1=O | > 70.3 |
| CC(CCN1CCN(c2ccccn2)CC1)c1ccccc1 (centres undefined) | 31 (≈ 105 µM) |
| CCOC(=O)Cn1c2ccccc2c2nc(C)sc21 | > 41.2 |
| O=C(CCS(=O)(=O)c1ccccc1Cl)NC1CCCCCC1 | > 51.6 |
| Cc1cccc(OCC(=O)NCCCNC(=O)c2ccccn2)c1 | 45.4 (≈ 139 µM) |
| Cc1cc(Cl)nc(Cl)c1C(=O)NCCc1ccccc1 | > 46.4 |
| O=C(COC(=O)C1COc2ccccc2O1)NC1CCCCC1 (centres undefined) | > 47.9 |
| O=C(Nc1cc(Cl)ccc1N1CCOCC1)c1cccnc1Cl | 49.7 (≈ 141 µM) |
| CCC(=O)Nc1ccc(NC(=O)c2ccc3ccccc3c2)cc1 | < 0.3 |
| CCOc1ccc(C(=O)NCc2ccco2)cc1OC | 37.7 (≈ 137 µM) |
| N#Cc1ccc(C(=O)OCC(=O)Nc2cccc(S(=O)(=O)NC3=NCCC3)c2)cc1 | > 64 |
| O=C(Cc1ccccc1[N+](=O)[O-])NCCCc1ccccc1 | 43.2 (≈ 145 µM) |
| CC(=O)c1ccc(O)c(CSc2nncn2C)c1 | > 39.5 |
| Cc1ccc(S(=O)(=O)N2CCOCC2)cc1NC(=O)COC(=O)Cc1ccc(Cl)cc1 | 18.7 (≈ 40 µM) |
| Cn1cc(C(=O)C(=O)NCCc2ccccc2)c2ccccc21 | 0.6 (≈ 1.96 µM) |

| Compound | solubility kinetic [µg/mL] |
| --- | --- |
| O=C(/C=C/c1ccc(-c2ccc(F)cc2)o1)N1CCCC1 | 31.7 (≈ 111 µM) |
| Cc1cc(C)c(NC(=O)C2CCN(C(=O)c3ccco3)CC2)c(C)c1 | 44.2 (≈ 130 µM) |
| Cc1ccc([N+](=O)[O-])cc1NC(=O)c1ccccc1 | 8.5 (≈ 33.2 µM) |
| Cc1ccc(S(=O)(=O)NC(=NC(C)C)c2ccccc2)cc1 | > 47.5 |
| COc1ccc(-c2ccccc2)cc1NC(=O)c1cccs1 | 1.2 (≈ 3.88 µM) |
| Nc1cc(=O)[nH]c(SCC(=O)Nc2ccc(N3CCCCC3)cc2)n1 | 4.8 (≈ 13.4 µM) |
| COc1cc(NC(=O)c2cccc(S(=O)(=O)N3CCCCC3)c2)cc(OC)c1OC | 7.2 (≈ 16.6 µM) |
| COc1ccc(C(=O)OCC(=O)NC(=O)NC2CCCC2)c(O)c1 | 4.1 (≈ 12.2 µM) |
| Cc1cccc(C)c1OCC(=O)NCC1CCCO1 (centres undefined) | 39.5 (≈ 150 µM) |
| CC(C)N(c1ccccc1)c1ccc(NC(=S)NCCN(C)C)cc1 | 44 (≈ 123 µM) |
| COc1cccc(NC(=O)CN(C)C(=O)C2CC3C=CC2C3)c1 (centres undefined) | > 47.2 |
| COCCN1CN=C(NS(=O)(=O)c2ccc(C)cc2)NC1 | > 46.9 |
| O=C(Nc1cccnc1)c1ccc(Cl)c(Cl)c1 | 40 (≈ 150 µM) |
| O=C(O)C1C2CCC(O2)C1C(=O)Nc1cccc(Cl)c1 (centres undefined) | 40.6 (≈ 137 µM) |
| CNC(=O)NC(O)C(Cl)(Cl)Cl (centres undefined) | 33.1 (≈ 149 µM) |
| COc1ccccc1Nc1nc(C)cc(C)n1 | 22.1 (≈ 96.4 µM) |
| CC(NC(=O)COC(=O)c1cccs1)c1ccccc1 (centres undefined) | 11.9 (≈ 41.1 µM) |
| COC(=O)c1ccc(NC(=O)CCN2CCOCC2)cc1 | > 43.9 |
| COc1ccc(C)cc1N(CC(=O)N1CCCCCC1)S(C)(=O)=O | 38.1 (≈ 107 µM) |
